The test system of this assay is B6C3F1 mice, B16 melanoma ip, median survival T/C. Description: NCI In Vivo Anticancer Drug Screen. Data for tumor model B16 Melanoma (intraperitoneal) in B6C3F1 mice. Particulars: endpoint: median survival time, higher = longer survival. In a few lines: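 Values are T/C ratios: the measurement in treated animals divided by that in vehicle-treated controls, using survival or tumor size in mice carrying transplantable tumors.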

The mark [1] stands for this setting: dose: 6.25 mg/kg/injection, schedule: Q01DX009 (ip), vehicle: saline.
Where [2] appears, read: dose: 25.0 mg/kg/injection, schedule: Q01DX009 (ip), vehicle: saline with Tween-80.
Setting [3] is: dose: 50.0 mg/kg/injection, schedule: Q01DX009 (ip), vehicle: saline with Tween-80.
Where [4] appears, read: dose: 100.0 mg/kg/injection, schedule: Q01DX009 (ip), vehicle: saline with Tween-80.
The mark [5] stands for this setting: dose: 200.0 mg/kg/injection, schedule: Q01DX009 (ip), vehicle: saline with Tween-80.
The mark [6] stands for this setting: dose: 0.31 mg/kg/injection, schedule: Q01DX009 (ip), vehicle: saline with Tween-80.
The mark [7] stands for this setting: dose: 1.25 mg/kg/injection, schedule: Q01DX009 (ip), vehicle: saline with Tween-80.
Setting [8] is: dose: 2.5 mg/kg/injection, schedule: Q01DX009 (ip), vehicle: saline with Tween-80.

Values joined by “and” are separate entries in the source; they are usually repeats but may differ in a detail not shown here. Equal values may be shown once. Inconclusive results and toxic doses are left out.

In the case of `C=C1COC(O)(C2OCOC(C3CC(=O)NC(=O)C3)C2O)C1C` (configuration not stated), the T/C was 94 % of control (dose: 4.0 micrograms/kg/injection, schedule: Q01DX009 (ip), vehicle: water); 111 % of control and 113 % of control (dose: 8.0 micrograms/kg/injection, schedule: Q01DX009 (ip), vehicle: water); 109 % of control (dose: 16.0 micrograms/kg/injection, schedule: Q01DX009 (ip), vehicle: water); 115 % of control (dose: 32.0 micrograms/kg/injection, schedule: Q01DX009 (ip), vehicle: water).

For the molecule `C[N+](C)=C1C=CC(=C2C=CSC=C2)C=C1`, the T/C reads like this: (dose: 3.0 mg/kg/injection, schedule: Q01DX009 (ip), vehicle: saline) 115 % of control; under setting [1], 116 % of control.

As for `COc1cccc2c1C(=O)c1c(O)c3c(c(O)c1C2=O)C[C@@](O)(C(C)O)C[C@@H]3OC1CC(N2CCOCC2)C(O)C(C)O1` (some centres not stated), the T/C (dose: 0.06 mg/kg/injection, schedule: Q01DX001 (ip), vehicle: water) is 111 % of control; the T/C (dose: 0.13 mg/kg/injection, schedule: Q01DX001 (ip), vehicle: water) was 115 % of control; the T/C (dose: 62.5 micrograms/kg/injection, schedule: Q01DX001 (ip), vehicle: water) was 107 % of control; the T/C (dose: 125.0 micrograms/kg/injection, schedule: Q01DX001 (ip), vehicle: water) was 106 % of control; the T/C (dose: 250.0 micrograms/kg/injection, schedule: Q01DX001 (ip), vehicle: water) was 120 % of control.

For the molecule `CN(C)C1C(=O)C(C(=O)NP(=O)(NCCCO)N(CCCl)CCCl)=C(O)C2(O)C(=O)C3=C(O)c4c(O)cccc4C(C)(O)C3CC12` (configuration not stated), the T/C reads like this: (dose: 12.0 mg/kg/injection, schedule: Q01DX009 (ip), vehicle: saline with Tween-80) 105 % of control; under setting [2], 103 % of control and 107 % of control; under setting [3], 118 % of control and 102 % of control; under setting [4], 121 % of control; under setting [5], 195 % of control and 219 % of control.

For the molecule `Cc1nc(N)nc(N)c1-c1ccc(Cl)c(Cl)c1`, the T/C was 102 % of control under setting [6]; 116 % of control (dose: 0.62 mg/kg/injection, schedule: Q01DX009 (ip), vehicle: saline); 104 % of control (dose: 0.63 mg/kg/injection, schedule: Q01DX009 (ip), vehicle: saline with Tween-80); 102 % of control under setting [7]; 101 % of control and 102 % of control (dose: 1.25 mg/kg/injection, schedule: Q01DX009 (ip), vehicle: saline); 113 % of control under setting [8]. For the same molecule, under “dose: 2.5 mg/kg/injection, schedule: Q01DX009 (ip), vehicle: saline”, the T/C was 116 % of control.

In the case of `CCCCCCCC(=O)O[C@H]1[C@H]2[C@@H](CC1(C)C)C(=O)[C@]13O[C@H]1C(=O)[C@]1(CO1)[C@]23C`, the T/C is, setting by setting: under setting [6], 98 % of control; (dose: 0.62 mg/kg/injection, schedule: Q01DX009 (ip), vehicle: saline with Tween-80) 90 % of control; under setting [7], 86 % of control and 98 % of control; under setting [8], 88 % of control.

For `C=C(C)C(=O)OC1C/C(CO)=C\C(O)C/C(C)=C/C2OC(=O)C(=C)C21` (configuration not stated), the T/C runs as follows: (dose: 1.25 mg/kg/injection, schedule: Q01DX009 (ip), vehicle: saline + alcohol) 101 % of control; (dose: 2.5 mg/kg/injection, schedule: Q01DX009 (ip), vehicle: saline + alcohol) 100 % of control; (dose: 5.0 mg/kg/injection, schedule: Q01DX009 (ip), vehicle: saline + alcohol) 114 % of control; (dose: 10.0 mg/kg/injection, schedule: Q01DX009 (ip), vehicle: saline + alcohol) 112 % of control.

Turning to `CCCCC/C(=C\c1ccccc1)C1OCC(COCC)O1` (configuration not stated), the T/C runs as follows: (dose: 6.25 mg/kg/injection, schedule: Q01DX009 (ip), vehicle: saline + Tween-80 + alcohol) 87 % of control; (dose: 12.5 mg/kg/injection, schedule: Q01DX009 (ip), vehicle: saline + Tween-80 + alcohol) 91 % of control; (dose: 25.0 mg/kg/injection, schedule: Q01DX009 (ip), vehicle: saline + Tween-80 + alcohol) 94 % of control; (dose: 50.0 mg/kg/injection, schedule: Q01DX009 (ip), vehicle: saline + Tween-80 + alcohol) 93 % of control.

`O=NNc1ccccn1`: the T/C (dose: 1.56 mg/kg/injection, schedule: Q01DX009 (ip), vehicle: water) was 120 % of control and 96 % of control; the T/C (dose: 3.12 mg/kg/injection, schedule: Q01DX009 (ip), vehicle: water) was 116 % of control and 120 % of control and 124 % of control.

As for `[Cl][Pt+2][Cl].[NH-]c1ccc(C(=O)c2ccccc2)cc1[NH-]`, the T/C runs as follows: (dose: 20.0 mg/kg/injection, schedule: Q01DX009 (ip), vehicle: saline with Tween-80) 109 % of control and 107 % of control; (dose: 40.0 mg/kg/injection, schedule: Q01DX009 (ip), vehicle: saline with Tween-80) 114 % of control and 116 % of control; (dose: 80.0 mg/kg/injection, schedule: Q01DX009 (ip), vehicle: saline with Tween-80) 112 % of control and 115 % of control; (dose: 160.0 mg/kg/injection, schedule: Q01DX009 (ip), vehicle: saline with Tween-80) 116 % of control; (dose: 320.0 mg/kg/injection, schedule: Q01DX009 (ip), vehicle: saline with Tween-80) 110 % of control and 121 % of control.

With `C[Si](C)(C)OSc1ccccc1[N+](=O)[O-]`, the T/C runs as follows: (dose: 12.5 mg/kg/injection, schedule: Q01DX009 (ip), vehicle: Klucel (hydroxypropylcellulose) (HPC)) 108 % of control; (dose: 25.0 mg/kg/injection, schedule: Q01DX009 (ip), vehicle: Klucel (hydroxypropylcellulose) (HPC)) 110 % of control; (dose: 50.0 mg/kg/injection, schedule: Q01DX009 (ip), vehicle: Klucel (hydroxypropylcellulose) (HPC)) 113 % of control; (dose: 100.0 mg/kg/injection, schedule: Q01DX009 (ip), vehicle: Klucel (hydroxypropylcellulose) (HPC)) 112 % of control; (dose: 200.0 mg/kg/injection, schedule: Q01DX009 (ip), vehicle: Klucel (hydroxypropylcellulose) (HPC)) 103 % of control; (dose: 400.0 mg/kg/injection, schedule: Q01DX009 (ip), vehicle: Klucel (hydroxypropylcellulose) (HPC)) 89 % of control.

With `Nc1ccc(C(OC(=O)c2cc3ccccc3c(Cc3c(O)c(C(=O)OC(c4ccc(N)cc4)(c4ccc(N)cc4)c4ccc(N)cc4)cc4ccccc34)c2O)(c2ccc(N)cc2)c2ccc(N)cc2)cc1`, the T/C is, setting by setting: (dose: 0.78 mg/kg/injection, schedule: Q01DX009 (ip), vehicle: saline with Tween-80) 112 % of control and 96 % of control; (dose: 3.12 mg/kg/injection, schedule: Q01DX009 (ip), vehicle: saline with Tween-80) 111 % of control and 107 % of control; (dose: 3.13 mg/kg/injection, schedule: Q01DX009 (ip), vehicle: saline with Tween-80) 104 % of control.

As for `Cn1ccc(=Nc2ccc(NC(=O)c3ccc(N=c4ccn(C)c5ccc([N+](=O)[O-])cc45)cc3[N+](=O)[O-])cc2)cc1`, the T/C is 105 % of control (dose: 12.5 mg/kg/injection, schedule: Q01DX009 (ip), vehicle: saline with Tween-80); 93 % of control under setting [2]; 91 % of control under setting [3]; 94 % of control under setting [4]; 96 % of control under setting [5]; 96 % of control (dose: 400.0 mg/kg/injection, schedule: Q01DX009 (ip), vehicle: saline with Tween-80).

Take `COc1cc(C)c2c(c1C=O)Oc1c(c(C)c(O)c3c1C(O)OC3=O)OC2=O` (configuration not stated): the T/C was 94 % of control (dose: 3.12 mg/kg/injection, schedule: Q01DX009 (ip), vehicle: saline); 100 % of control under setting [1]; 105 % of control (dose: 12.5 mg/kg/injection, schedule: Q01DX009 (ip), vehicle: saline); 98 % of control (dose: 25.0 mg/kg/injection, schedule: Q01DX009 (ip), vehicle: saline); 98 % of control (dose: 50.0 mg/kg/injection, schedule: Q01DX009 (ip), vehicle: saline).
